Assay results: patent publication US11649218B2, “C-Abl tyrosine kinase inhibitory compound embodiments and methods of making and using the same” (The USA, as represented by the Secretary, Dept. of Health …, priority 2018, dated 2023)
Where “and” joins values, the source holds several entries; their conditions need not be identical. Identical values can stand only once.

How the values were obtained:
Leukemia K562 cell = Leukemia K562 cell proliferation/viability assay (CellTiterGlo, 48 hours); type: cell-based; set-up: unit not given here; conditions: K562 cells
Summary of the method: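 BCR-Abl-dependent K562 cells treated with compound for 48 hours in an HTS-adapted format. Viability read out with CellTiterGlo reagent.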

[1] = test system: P. falciparum strain NF54 asexual parasites; test: Asexual stage parasite growth inhibition, SYBR Green assay, 72 hours; type: cell-based; conditions: for % Killing / IC50: NF54, 72 hours; for IC50: Plasmodium falciparum
Method: In this example, several of the c-Abl inhibitors were tested in the asexual […] strain of P. falciparum parasites for activity against malaria. […] The pre-diluted parasites were dispensed into a 1536-well plate (2.5 μL/well). […] The fluorescence of each well was measured at 520 nm following excitation at 490 nm using a ViewLux platereader (PerkinElmer).

[2] = test system: ShSy5y neuroblastome cells; test: Cholesterol accumulation induced by U18666, Filipin or PFO-GST staining; type: cell-based; conditions: U18 0.5 μg/ml 24 hours; NCGC00373060 0.1 and 0.01 μM, Imatinib 10 uM
Method: Cells were fixed and then stained with Filipin Staining. […] Cells were fixed and a PFO-GST immunofluorescence was performed.

APP/PSEN1 mice = test: APP/PSEN1 AD mice model, water maze, Barnes maze and brain histology; conditions: water maze
From the text: The Barnes maze test is a more sensible test that detects the earlier and subtle cognitive alterations.

neurons = test: Apoptotic nuclei induced by Aβ fibrils, Hoescht staining; type: cell-based
Method: Additional results from another compound embodiment, NCGC00355553, are provided by FIG. 9C. Apoptotic nuclei were evaluated by Hoescht staining.

CML (K562) cell line = test: K562 cell proliferation inhibition by MTT assay, 48 hours; type: cell-based; conditions: K562, 48 hours; for AC50: Homo sapiens, determined in different assays
Method: In this example, the ability of two compound embodiments described here, NCGC00373060 and NCGC00373056, to induce cell death in the CML (K562) cell line was evaluated. The leukemia cells were incubated with different concentrations of the compounds for 48 hours, and the cell proliferation inhibition was evaluated by the MTT assay. […] The leukemia cells were incubated with different concentrations of each compound embodiment for 48 hours, and the cell proliferation inhibition was evaluated by the MTT assay.

[3] = Pharmacokinetic profile in plasma; type: in vivo, mice; conditions: 12.5 mg/kg IP
[4] = Pharmacokinetic profile in brain; type: in vivo, mice; conditions: 12.5 mg/kg IP
hippocampal neurons [5] = test: Neuroprotection against Aβ fibrils, MTT assay; type: cell-based; conditions: 0.01, 0.1 and 1 μM; 5 μM Aβ peptide, 24 hours
Method: Compound embodiments NCGC00373060 and NCGC00373056 also conferred neuroprotection against Aβ fibrils. […] Additional data from other compounds are provided by FIGS. 8C-8E. Neurons were incubated with 5 μM Aβ peptide in presence of the different compound concentrations for 24 hours and cell viability was evaluated by the MTT assay. Results from additional compounds are provided by FIG. 8C.

5XFAD mice = test: 5XFAD AD mice model, water maze and amyloid burden; type: in vivo; conditions: 9-month-old 5XFAD mice, 12.5 mg/kg daily for 30 days, IP
From the text: . First, the 5XFAD mice was used as the AD model. […] .

TLE mice model [6] = test: Pilocarpine-induced status epilepticus (SE) after 15 days of supplemented diet; type: in vivo, mice (C57BL/6); set-up: Survival % / Survival %, mean: concentration or dose not given beside the values; conditions: for Survival % / Latency SE: individual mice; for Survival % / Survival %, mean: 60 minutes post-SE induction; for Latency SE / Latency SE, mean / SE %, mean: diet 67 ppm NCGC00373060 or 200 ppm Nilotinib
Method: (§1) In this example, the ability of compound embodiments of the present disclosure to increase survival and diminish seizure symptoms in a TLE mice model was evaluated. […] The animals' weights were determined the week before and during the two weeks of c-Abl inhibitors treatment (results are provided in Table 12 and are illustrated graphically in FIG. 28). After 15 days of feeding, status epilepticus (SE) induction was evaluated. The mice were IP injected with Scopolamine (1.5 mg/Kg) and after 15 minutes, the SE was induced by IP injection of Pilocarpine (420 mg/Kg). The animals' behavior and the seizures induction was evaluated according to Racine's scale and the survival was determined during 60 minutes post-SE induction. […] Results are tabulated in Table 13, below and also are illustrated graphically in FIGS. 29A-29D.

TLE mice model [7] = test: Pilocarpine TLE epilepsy model, IP pre-treatment; conditions: 5 mg/Kg IP each day three days before Pilocarpine
Method: The injected animals were observed by 60 min after the Pilocarpine.

hippocampal neurons [8] = test: Neuronal death induced by Glutamate, MTT cell viability test
[9] = Blood and serum analysis after one month of supplemented diet; type: in vivo, mice (C57BL/6×C3H); conditions: 1 month diet (Nilotinib 200 ppm; NCGC00373060 67 ppm), individual mice
From the text: After this one-month period, blood and serum was obtained from the mice and analyzed.

[10] = Body weight during supplemented diet in TLE mice study; type: in vivo, mice (C57BL/6)
Method: as §1

[11] = individual mice, diet 67 ppm NCGC00373060 or 200 ppm Nilotinib
[12] = mean, diet 67 ppm NCGC00373060 or 200 ppm Nilotinib

SMILES: Cc1ccc(NC(=O)c2ccc(CN3CCN(C)CC3)cc2)cc1Nc1nccc(-c2cccnc2)n1 [Imatinib]
- Efficacy (Leukemia K562 cell): −105.5
- % Killing [1]: 111.0%
- cholesterol accumulation [2]: decreased the cholesterol accumulation

SMILES: CS(=O)(=O)Nc1cccc(-c2ccc3c(c2)C(=O)Nc2cc(OC(F)(F)F)ccc2N3)c1 [NCGC00355551, N-(3-(11-Oxo-8-(trifluoromethoxy)-10,11-dihydro-5H-dibenzo[b,e][1,4]diazepin-2-yl)phenyl)methanesulfonamide]
- Efficacy (Leukemia K562 cell): −85.3
- cognitive decline in APP/PSEN1 mice (APP/PSEN1 mice): protects APP/PSEN1 mice against cognitive decline

SMILES: O=C1Nc2cc(OC(F)(F)F)ccc2Nc2ccc(-c3cn[nH]c3)cc21 [NCGC00355553, 2-(1H-Pyrazol-4-yl)-8-(trifluoromethoxy)-5,10-dihydro-1-dibenzo[b,e][1,4]diazepin-11-one]
- apoptotic nuclei induced by Aβ fibrils (neurons): prevent increases in apoptotic nuclei induced by Aβ fibrils

SMILES: CNS(=O)(=O)c1cccc(-c2ccc3c(c2)C(=O)Nc2cc(OC(F)(F)F)ccc2O3)c1 [NCGC00373056, N-Methyl-3-(11-oxo-8-(trifluoromethoxy)-10H-dihydrodibenzo[b,f][1,4]oxazepin-2-yl)benzenesulfonamide]
- Efficacy (Leukemia K562 cell): −78.5
- AC50 (CML (K562) cell line): 500 nM
- induction of cell death (CML (K562) cell line; MTT): able to induce cell death
- activity against malaria parasites ([1]; NF54): low single digit uM range
- % Killing [1]: 96.5%
- IC50 [1]: 1360 nM
- Plasma concentration ([3]; Time 0.083): 12080 nM
- Plasma concentration ([3]; Time 0.25): 16961 nM
- Plasma concentration ([3]; Time 0.5): 16559 nM
- Plasma concentration ([3]; Time 1): 8627 nM
- Plasma concentration ([3]; Time 2): 6747 nM
- Plasma concentration ([3]; Time 4): 2600 nM
- Plasma concentration ([3]; Time 7): 421 nM
- Plasma concentration ([3]; Time 24): 9 nM
- Brain concentration ([4]; Time 0.083): 1.291 µmol/kg
- Brain concentration ([4]; Time 0.25): 2.649 µmol/kg
- Brain concentration ([4]; Time 0.5): 2.658 µmol/kg
- Brain concentration ([4]; Time 1): 3.381 µmol/kg
- Brain concentration ([4]; Time 2): 2.212 µmol/kg
- Brain concentration ([4]; Time 4): 1.065 µmol/kg
- Brain concentration ([4]; Time 7): 0.202 µmol/kg
- Brain concentration ([4]; Time 24): 0.004 µmol/kg
- neuroprotection against Aβ toxicity (hippocampal neurons [5]): protect neurons against the Aβ toxicity
- apoptotic nuclei induced by Aβ fibrils (neurons): prevention of the increases in apoptotic nuclei induced by Aβ fibrils
- cognitive decline, water maze (5XFAD mice): protected 5XFAD mice against the cognitive decline

SMILES: O=C1Nc2cc(OC(F)(F)F)ccc2Oc2ccc(-c3ccnc(N4CCNCC4)c3)cc21 [NCGC00373060, 2-(2-(Piperazin-1-yl)pyridin-4-yl)-8-(trifluoromethoxy)dibenzo[b,j][1,4]oxazepin-11(10H)-one]
- Efficacy (Leukemia K562 cell): −99.1
- AC50 (CML (K562) cell line): 5000 nM
- % Killing [1]: 89.9%
- IC50 [1]: 1630 nM
- Plasma concentration ([3]; Time 0.167): 4440 nM
- Plasma concentration ([3]; Time 0.5): 4784 nM
- Plasma concentration ([3]; Time 1): 7844 nM
- Plasma concentration ([3]; Time 2): 4112 nM
- Plasma concentration ([3]; Time 4): 2709 nM
- Plasma concentration ([3]; Time 7): 1723 nM
- Plasma concentration ([3]; Time 24): 581 nM
- Plasma concentration ([3]; Time 48): 138 nM
- Plasma concentration ([3]; Time 72): 70 nM
- Plasma concentration ([3]; Time 96): 36 nM
- Plasma concentration ([3]; Time 120): 11 nM
- Plasma concentration ([3]; Time 168): 4 nM
- Brain concentration ([4]; Time 0.167): 0.208 µmol/kg
- Brain concentration ([4]; Time 0.5): 0.275 µmol/kg
- Brain concentration ([4]; Time 1): 0.595 µmol/kg
- Brain concentration ([4]; Time 2): 0.912 µmol/kg
- Brain concentration ([4]; Time 4): 1.351 µmol/kg
- Brain concentration ([4]; Time 7): 1.887 µmol/kg
- Brain concentration ([4]; Time 24): 1.198 µmol/kg
- Brain concentration ([4]; Time 48): 0.493 µmol/kg
- Brain concentration ([4]; Time 72): 0.208 µmol/kg
- Brain concentration ([4]; Time 96): 0.089 µmol/kg
- Brain concentration ([4]; Time 120): 0.044 µmol/kg
- Brain concentration ([4]; Time 168): 0.010 µmol/kg
- Survival % (TLE mice model [6]): 100%
- Latency SE (TLE mice model [6]): 19 min
- Survival %, mean (TLE mice model [6]): 100%
- Latency SE, mean (TLE mice model [6]): 19 min
- SE %, mean (TLE mice model [6]): 40%
- mortality associated to the epileptic status (TLE mice model [7]): decreases the mortality associated to the epileptic status
- seizures, latency time (TLE mice model [7]): prevented the seizures increasing the latency time
- protection against neuronal death induced by Glutamate (hippocampal neurons [8]): protects neurons against neuronal death induced by Glutamate

SMILES: Cc1cn(-c2cc(NC(=O)c3ccc(C)c(Nc4nccc(-c5cccnc5)n4)c3)cc(C(F)(F)F)c2)cn1 [Nilotinib]
- Efficacy (Leukemia K562 cell): −86.5
- % Killing [1]: 98.7%
- IC50 [1]: 648 nM
- ALT [9]: 36.0 IU/L and 26.0 IU/L
- AST [9]: 142.0 IU/L and 114.0 IU/L
- Alkaline phosphatase [9]: 386.4 IU/ and 278.2 IU/
- Bacilliformes [9]: 0 µL⁻¹
- Bacilliformres (%) [9]: 0%
- Blastos [9]: 0 µL⁻¹
- Blood urea nitrogen [9]: 19.7 mg/dL and 18.2 mg/dL
- C.H.C.M. [9]: 29.3 g/dL and 28.9 g/dL
- Calcium [9]: 10.4 mg/dL and 10.2 mg/dL
- Creatinine [9]: 1.0 mg/dL and 0.8 mg/dL
- Eosinophils [9]: 32 µL⁻¹ and 0 µL⁻¹
- Eosinophils (%) [9]: 1% and 0%
- Erythrocytes [9]: 5.9e+06 µL⁻¹ and 8.6e+06 µL⁻¹
- Glucose (without fluoride) [9]: 84.0 mg/dL and 56.0 mg/dL
- H.C.M. [9]: 14.9 pg/cel and 14.7 pg/cel
- Hematocrit [9]: 30.0% and 43.6%
- Hemoglobin [9]: 8.8 g/dL and 12.6 g/dL
- Juvenile [9]: 0 µL⁻¹
- Leukocytes [9]: 3,200 /μL and 3,300 /μL
- Lymphocytes (%) [9]: 60% and 62%
- Mean platelet vol. [9]: 6.9 fL and 6.1 fL
- Monocytes (%) [9]: 4% and 15%
- Morphology leukocytes [9]: Normal
- Myelocytes [9]: 0 µL⁻¹
- Reticulocytes (%) [9]: 0.5% and 0.6%
- Reticulocytes (×10^3/μL) [9]: 29.6 ×10^3/μL and 51.3 ×10^3/μL
- Segmented [9]: 759 µL
- Segmented (%) [9]: 35% and 23%
- Segmented (μL) [9]: 1,120 μL
- Thrombocyte morphology [9]: Normal
- Thrombocytes [9]: 780,000 /μL and 689,000 /μL
- Total cholesterol [9]: 114.0 mg/dL and 84.0 mg/dL
- V.C.M. [9]: 50.8 fL and 51.0 fL
- V.H.S. [9]: 3.0 and 6.0
- Weight [9]: 42.7 g and 25.2 g
- Youth (%) [9]: 0%
- Lymphocytes ([9]; absolute count): 1,920 and 2,046
- Monocytes ([9]; absolute count): 128 and 495
- Body weight week 4 [10, 11]: 17 gr (2×) and 19 gr and 15 gr (2×) and 14 gr (2×) and 18 gr (2×)
- Body weight week 5 [10, 11]: 18 gr (3×) and 21 gr and 17 gr and 19 gr and 16 gr and 20 gr (2×)
- Body weight week 3 ([10]; individual mice, week before diet (67 ppm NCGC00373060 or 200 ppm Nilotinib)): 15 gr (2×) and 18 gr and 11 gr and 9 gr (2×) and 12 gr and 14 gr and 16 gr
- Body weight week 4, mean [10, 12]: 16 gr
- Body weight week 5, mean [10, 12]: 19 gr
- Body weight week 3, mean ([10]; mean, week before diet (67 ppm NCGC00373060 or 200 ppm Nilotinib)): 13 gr
- Survival % (TLE mice model [6]): 100%
- Latency SE (TLE mice model [6]): 30 min and 22 min
- Survival %, mean (TLE mice model [6]): 100%
- Latency SE, mean (TLE mice model [6]): 26 min
- SE %, mean (TLE mice model [6]): 40%
